Target: T1, IRAK4 (Homo sapiens, UniProt Q9NWZ3)
T1 sequence (Q9NWZ3 1-460): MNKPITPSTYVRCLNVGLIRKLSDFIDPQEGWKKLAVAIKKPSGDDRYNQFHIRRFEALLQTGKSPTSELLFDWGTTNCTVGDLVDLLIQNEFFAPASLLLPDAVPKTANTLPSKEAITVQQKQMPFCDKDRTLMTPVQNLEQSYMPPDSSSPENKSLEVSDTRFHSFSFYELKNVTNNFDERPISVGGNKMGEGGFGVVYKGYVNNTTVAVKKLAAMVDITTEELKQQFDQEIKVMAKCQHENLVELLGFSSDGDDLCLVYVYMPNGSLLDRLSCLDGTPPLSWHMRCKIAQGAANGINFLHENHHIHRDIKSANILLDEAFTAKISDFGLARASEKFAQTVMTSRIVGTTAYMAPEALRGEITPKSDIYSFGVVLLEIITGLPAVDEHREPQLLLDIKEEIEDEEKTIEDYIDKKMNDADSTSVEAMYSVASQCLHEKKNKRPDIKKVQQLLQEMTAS
Test: IRAK-4 activity inhibition assay (Caliper)
Assay type: biochemical
Settings: 37 μM ATP, 3.5 nM IRAK4

Row | Structure (SMILES) | IC50 [µM]
1 | C[C@@H](O)C[C@H]1CCc2sc3ncnc(N[C@H]4CC[C@H](N(C)C)CC4)c3c21 [Compound I-53] | < 5
2 | CN(C)[C@H]1CC[C@H](Oc2ncnc3sc4c(c23)[C@@H](CC(=O)Nc2ccc(F)cn2)CC4)CC1 [Compound I-37, 2-[(3R)-12-[[4-(dimethylamino)cyclohexyl]oxy]-7-thia-9,11-diazatricyclo[6.4.0.0[2,6]]-dodeca-1(8),2(6),9,11-tetraen-3-yl]-N-(5-fluoropyridin-2-yl)acetamide] | < 5
3 | CCN[C@H]1CC[C@H](Oc2ncnc3sc4c(c23)[C@@H](C[C@@H](O)C(N)=O)CC4)CC1 [Compound I-139, (2R)-3-[(3R)-12-[[4-(ethylamino)cyclohexyl]oxy]-7-thia-9,11-diazatricyclo[6.4.0.0[2,6]]dodeca-1(8),2(6),9,11-tetraen-3-yl]-2-hydroxypropanamide] | < 5
4 | NC(=O)C(=O)C[C@H]1CCc2sc3ncnc(OC4CCC(N5CCOCC5)CC4)c3c21 (stereo partly drawn) [Compound I-213, 3-[(3R)-12-[[4-(morpholin-4-yl)cyclohexyl]oxy]-7-thia-9, 11-diazatricyclo[6.4.0.0[2,6]]dodeca-1(8),2(6),9, 11-tetraen-3-yl]-2-oxopropanamide] | < 5
5 | CN(C)[C@H]1CC[C@H](Oc2ncnc3sc4c(c23)[C@@H](C[C@H](O)C(F)(F)F)CC4)CC1 [Compound I-70, (S)-3-((R)-4-(((1r,4R)-4-(dimethylamino)cyclohexyl)oxy)-6,7-dihydro-5H-cyclopenta[4,5]thieno[2,3-d]pyrimidin-5-yl)-1,1,1-trifluoropropan-2-ol] | < 5
6 | CN(C)[C@H]1CC[C@H](Oc2ncnc3sc4c(c23)[C@H](CO)CC4)CC1 [Compound I-20, ((S)-4-(((1r,4S)-4-(dimethylamino)cyclohexyl)oxy)-6,7-dihydro-5H-cyclopenta[4,5]thieno[2,3-d]pyrimidin-5-yl)methanol] | < 5
7 | CC(=O)N1Cc2sc3ncnc(O[C@H]4CC[C@H](N5CCOCC5)CC4)c3c2C1 [Compound I-198, 1-(12-[[4-(morpholin-4-yl)cyclohexyl]oxy]-7-thia-4,9,11-triazatricyclo[6.4.0.0[2,6]]dodeca-1(12),2(6),8, 10-tetraen-4-yl)ethan-1-one] | 20 to 50
8 | CN(C)[C@H]1CC[C@H](Oc2ncnc3sc4c(c23)CC(CCO)OC4)CC1 (some centres unmarked) [Compound I-219, 2-(3-[[4-(dimethylamino)cyclohexyl]oxy]-1-oxa-8-thia-4,6-diazatricyclo[7.4.0.0[2,7]]trideca-1(9),2,4,6-tetraen-12-yl)ethan-1-ol] | < 5
9 | OC[C@H]1CCc2sc3ncnc(N[C@H]4CC[C@H](N5CCOCC5)CC4)c3c2C1 [Compound I-210, [(12S)-3-[[4-(morpholin-4-yl)cyclohexyl]amino]-8-thia-4,6-diazatricyclo[7.4.0.0[2,7]]trideca-2,4,6-trien-12-yl]methanol] | < 5
10 | CN(CC(=O)N1CCCC1)[C@H]1CC[C@H](Nc2ncnc3sc4c(c23)[C@@H](CCC(N)=O)CC4)CC1 [Compound I-127, 3-((S)-4-(((1r,4S)-4-(methyl(2-oxo-2-(pyrrolidin-1-yl)ethyl)amino)cyclohexyl)amino)-6,7-dihydro-5H-cyclopenta[4,5]thieno[2,3-d]pyrimidin-5-yl)propanamide] | 5 to 20
11 | CNC1CCC(Oc2ncnc3sc4c(c23)[C@@H](C[C@H](N)C(N)=O)CC4)CC1 (stereo partly drawn) [Compound I-146, (2S)-2-amino-3-[(3R)-12-[[4-(methylamino)cyclohexyl]oxy]-7-thia-9,11-diazatricyclo[6.4.0.0[2,6]]dodeca-1(8),2(6),9,11-tetraen-3-yl]propanamide] | < 5
12 | CCOC(=O)C1CCc2sc3ncnc(N[C@H]4CC[C@H](N(C)C)CC4)c3c21 (some centres unmarked) [Compound I-1] | 5 to 20

Further lines, results first:

Row | IC50 [µM] | Structure (SMILES)
13 | < 5 | CC1(C(N)=O)CCc2sc3ncnc(O[C@H]4CC[C@H](N5CCOCC5)CC4)c3c2C1 (some centres unmarked) [Compound I-237, 12-methyl-3-[[(1r,4r)-4-(morpholin-4-yl)cyclohexyl]oxy]-8-thia-4,6-diazatricyclo[7.4.0.0[2,7]]trideca-1(9),2,4,6-tetraene-12-carboxamide]
14 | < 5 | CN(C)[C@H]1CC[C@H](Oc2ncnc3sc4c(c23)[C@@H](CCC(N)=O)CCC4)CC1 [Compound I-163, 3-((R)-4-(((1r,4R)-4-(dimethylamino)cyclohexyl)oxy)-5,6,7,8-tetrahydrobenzo[4,5]thieno[2,3-d]pyrimidin-5-yl)propanamide]
15 | 5 to 20 | CCC(O)[C@H]1CCc2sc3ncnc(O[C@H]4CC[C@H](N(C)C)CC4)c3c21 (stereo partly drawn) [Compound I-50, (S)-1-((S)-4-(((1r,4S)-4-(dimethylamino)cyclohexyl)oxy)-6,7-dihydro-5H-cyclopenta[4,5]thieno[2,3-d]pyrimidin-5-yl)propan-1-ol]
16 | 5 to 20 | CC[C@]1(N(C)C)CC[C@H](Oc2ncnc3sc4c(c23)[C@@H](C[C@H](C)O)CC4)CC1 [Compound I-103, (2S)-1-[(3R)-12-[[4-(dimethylamino)-4-ethylcyclohexyl]oxy]-7-thia-9,11-diazatricyclo[6.4.0.0[2,6]]dodeca-1(12),2(6),8,10-tetraen-3-yl]propan-2-ol]
17 | < 5 | CO[C@@H](C[C@H]1CCc2sc3ncnc(O[C@H]4CC[C@H](N(C)C)CC4)c3c21)C(N)=O [Compound I-78, (2S)-3-[(3R)-12-[[4-(dimethylamino)cyclohexyl]oxy]-7-thia-9,11-diazatricyclo[6.4.0.0[2,6]]dodeca-1(8),2(6),9,11-tetraen-3-yl]-2-methoxypropanamide]
18 | > 50 | CN(C)[C@H]1CC[C@H](Nc2ncnc3sc4c(c23)C(CC(=O)N2CC[C@@H](O)C2)CC4)CC1 (stereo partly drawn) [Compound I-16, 2-(4-(((1r,4R)-4-(dimethylamino)cyclohexyl)amino)-6,7-dihydro-5H-cyclopenta[4,5]thieno[2,3-d]pyrimidin-5-yl)-1-((R)-3-hydroxypyrrolidin-1-yl)ethanone]
19 | < 5 | CN(C)[C@H]1CC[C@H](Nc2ncnc3sc4c(c23)C(CC#N)CC4)CC1 (some centres unmarked) [Compound I-9]
20 | 5 to 20 | CC(=O)N1CCc2sc3ncnc(O[C@H]4CC[C@H](N5CCOCC5)CC4)c3c2C1 [Compound I-171, 1-(3-[[4-(morpholin-4-yl)cyclohexyl]oxy]-8-thia-4,6,12-triazatricyclo[7.4.0.0[2,7]]trideca-1(9),2(7),3,5-tetraen-12-yl)ethan-1-one]
21 | 5 to 20 | CCNC(=O)CC1CCc2sc3ncnc(N[C@H]4CC[C@H](N(C)C)CC4)c3c21 (some centres unmarked) [Compound I-23, 2-(12-[[4-(dimethylamino)cyclohexyl]amino]-7-thia-9,11-diazatricyclo[6.4.0.0̂[2,6]]dodeca-1(8),2(6),9,11-tetraen-3-yl)-N-ethylacetamide]
22 | < 5 | CC1(C)Cc2c(sc3ncnc(O[C@H]4CC[C@H](N5CCOCC5)CC4)c23)CO1 [Compound I-193, 12,12-dimethyl-3-[[4-(morpholin-4-yl)cyclohexyl]oxy]-11-oxa-8-thia-4,6-diazatricyclo[7.4.0.0[2,7]]trideca-1(9),2(7),3,5-tetraene]
23 | < 5 | CC[C@@H](C[C@H]1CCc2sc3ncnc(N[C@H]4CC[C@H](N(C)C)CC4)c3c21)OC [Compound I-148, (1r,4R)-N1-((R)-5-((S)-2-methoxybutyl)-6,7-dihydro-5H-cyclopenta[4,5]thieno[2,3-d]pyrimidin-4-yl)-N4,N4-dimethylcyclohexane-1,4-diamine]

— patent publication US20160193216A1 (Nimbus Iris, Inc., priority 2012, published 2016)
